From patent publication US20240425805A1, “CELL CULTURE METHODS” (INTERNATIONAL N&H DENMARK APS, priority 2021, published 2024)

How the values were obtained:
Bifidobacterium animalis [1] = assay: Growth of B. animalis in MRS media, OD600 plate reader; format: cell-based; conditions: 24 hrs
Method: MRS media was inoculated with 1% overnight grown culture of Bifidobacterium animalis. Cells were grown with the addition of 5 mM ATP (Sigma) or 100 nM potato apyrase (ATPase; Sigma catalog #A6535). Experiments were performed in volumes of 200 μl per well in standard microtiter plates. Growth was assessed via Synergy HTX multi-mode plate reader (Bio Tek Instruments) at OD600 every 30 minutes for 24 hrs. Each plate was incubated at 37° C. and shaken once every 30 mins just before the reading.
MRS media was inoculated with 1% over night grown culture of B. animalis. Cells were grown with 100 nM potato apyrase (ATPase) or heat-treated (95° C. for 10 mins) 100 nM potato apyrase. Experiments were performed in volumes of 200 μl per well in standard microtiter plates. Growth was assessed via plate reader at OD600 every 30 minutes.

Akkermansia sp = assay: Effect of ATP and ATPase on growth (OD600), Table 1; format: cell-based; conditions: YCFAC + Mucin media; 5 mM ATP; 37° C. anaerobically, 48 hours
Method: (§1) Different growth media were inoculated with 1% over night grown culture of various bacterial and yeast species (as detailed in Table 1). Cells were grown in the presence of 5 mM exogenously-added ATP or 100 nM potato apyrase or bovine alkaline phosphatase (ATPase). Experiments were done in volumes of 200 μl per well in standard microtiter plates. Growth was assessed via plate reader at OD600 every 30 minutes for 48 hours. All the experiments were done at 37° C. anaerobically except for yeast strain Kazachstania unispora where cells were grown aerobically at 28° C.

[2] = test system: Bacillus amyloliquefaciens; assay: as above; format: cell-based; conditions: TSA media; 5 mM ATP; 37° C. anaerobically, 48 hours
Method: as §1

Bifidobacterium Infantis = assay: as above; format: cell-based; conditions: MRS media; 5 mM ATP; 37° C. anaerobically, 48 hours
Method: as §1

Bifidobacterium animalis [3] = assay: as above; format: cell-based; conditions: MRS media; 5 mM ATP; 37° C. anaerobically, 48 hours
Method: as §1

Bifidobacterium lactis = assay: as above; format: cell-based; conditions: MRS media; 5 mM ATP; 37° C. anaerobically, 48 hours
Method: as §1

Bifidobacterium longum = assay: as above; format: cell-based; conditions: BHI media; 5 mM ATP; 37° C. anaerobically, 48 hours
Method: as §1

Kazachstania unispora = assay: as above; format: cell-based; conditions: YM media; 5 mM ATP; aerobically at 28° C., 48 hours
Method: as §1

Lactobacillus crispatus = assay: as above; format: cell-based; conditions: MRS media; 5 mM ATP; 37° C. anaerobically, 48 hours
Method: as §1

Lactobacillus rhamnosus = assay: as above; format: cell-based; conditions: 5 mM ATP, 37° C. anaerobically, 48 hours
Method: as §1

Oscillibacter sp = assay: as above; format: cell-based; conditions: YCFAC media; 5 mM ATP; 37° C. anaerobically, 48 hours
Method: as §1

Prevotella copri = assay: as above; format: cell-based; conditions: TSA media; 5 mM ATP; 37° C. anaerobically, 48 hours
Method: as §1

CHO wild-type cell line = assay: CHO cell growth in suspension, trypan blue cell count; format: cell-based, Chinese hamster; conditions: for increase in CHO cell numbers: 10 nM ATPase, after 60 hrs of growth in suspension
Description: (§2) The growth effect of exogenously added ATPase enzymes was examined on established mammalian (Chinese hamster ovary (CHO)) cell lines. CHO wild-type cell line was purchased from Creative Biogene (NY, USA) Cat No. CSC-C3064, and CHO cell line constitutively expressing Green Fluorescent Protein (CHO-GFP) was purchased from GenTarget, Inc (San Diego, CA, USA) Cat No. SC039-Puro. Wild type CHO cell line was maintained in CD OptiCHO™ (ThermoFisher) medium for growth in suspension. GFP expressing CHO cell line was maintained in RPMI 1640 media (ThermoFisher) for adherent growth. Cell lines were cultured in a humidified incubation chamber at 37° C. with 5% CO2.
To measure the effect on CHO cells in suspension, cultures were seeded onto the wells of 6-well plates at 1×10^4 cells per well and incubated for 12 hours. Subsequently, ATPase (potato apyrase or bacterial enzyme CRC22110 (SEQ ID NO:1)) were added to the wells at 10 nM final concentration and incubated for an additional 48 hours. The potato apyrase (Cat No. A6410) and, was sourced from Sigma. The recombinant CRC22110 (SEQ ID NO: 1) enzyme was purified from Bacillus cultures using chromatography methods known in the art. After a total of 60 hours in culture, cells were detached by trypsin treatment, stained with trypan blue and counted in a Countess 3 FL system (Invitrogen). Data on FIG. 4 show the effect of ATPase on CHO cell growth.

CHO-GFP cell line = assay: GFP expression of CHO-GFP cell line in adherent culture, fluorescence imaging; format: cell-based, Chinese hamster; conditions: 10 nM ATPase; imaged after 60 hrs
Description: as §2
To study the effect of exogenous ATPase on recombinant protein expression by mammalian cells, the CHO-GFP cell line was used. CHO-GFP cells were seeded onto the wells of 6-well plates at 1×10^4 cells per well and incubated for 12 hours. Subsequently, ATPase (potato Apyrase or bacterial enzyme CRC22110) were added to the wells at 10 nM final concentration and cells were incubated for an additional 48 hours For GFP expression visualization, cells were imaged after 60 hrs of incubation with ATPase by using Invitrogen™ EVOS™ FL Imaging System. […] The number of cells displaying fluorescence signal and the amount of fluorescence are both increased in the cultures grown with exogenous ATPases, potato apyrase or CRC22110.

[4] = test system: B. animalis subsp. lactis 420; assay: eATP in culture supernatants, Luciferase Reporter Assay; format: cell-based; conditions: 100 nM potato apyrase; MRS, 37° C. anaerobic; 0, 7 and 13 hr
Method: MRS media was inoculated with 1% overnight grown culture of B. animalis subsp. lactis 420. Cells were grown at 37° C. under anaerobic conditions with and without potato apyrase. Potato apyrase was used at 100 nM. 200 μl of the sample was collected at different time points. Cells were harvested by centrifugation at 5000 rpm for 5 mins. Supernatants were used to estimate nanomolar ATP using a Luciferase® Reporter Assay System (Promega).
ATP measurements were performed on supernatants collected at 0, 7 and 13 hr time points.

Nc1ncnc2c1ncn2[C@@H]1O[C@H](COP(=O)(O)OP(=O)(O)OP(=O)(O)O)[C@@H](O)[C@H]1O [ATP, Adenosine triphosphate]
cellular growth (OD600) (Bifidobacterium animalis [1]; 5 mM exogenously added ATP, 37° C.): supressed | Sensitivity to ATP (Akkermansia sp): YES | Sensitivity to ATP [2]: YES | Sensitivity to ATP (Bifidobacterium Infantis): YES | Sensitivity to ATP (Bifidobacterium animalis [3]): YES | Sensitivity to ATP (Bifidobacterium lactis): YES | Sensitivity to ATP (Bifidobacterium longum): YES | Sensitivity to ATP (Kazachstania unispora): YES | Sensitivity to ATP (Lactobacillus crispatus): YES | Sensitivity to ATP (Lactobacillus rhamnosus; BHI media): YES | Sensitivity to ATP (Lactobacillus rhamnosus; MRS media): YES | Sensitivity to ATP (Oscillibacter sp): YES | Sensitivity to ATP (Prevotella copri): YES

B1: CRC22110: recombinant bacterial enzyme CRC22110 (SEQ ID NO:1), Gallaecimonas xiamenensis 3-C-1, purified from Bacillus cultures (protein, listed as Gallaecimonas xiamenensis)
chain: ADKPACRAVFDAGSSGTRLFLYVQQEGGWQPWPGAKLGALADPVRQHQGPKAMAALAADLANSLEALRQDGPTNSEGQPRWQGFDWQQACRLQSVSVLATAGMRLAEQQDPVASVALWQEVQQALAGLLGPAVAIDARTLTGFEEGFYAWLAARARLGRSDMGIVEMGGASSQVAFPCPACDRADDAVQQVRLEGQTLDFYSYSFLGLGQDEAPKVLGVPHACRYGAGVKDPNWQLGQCQAQLPLTLGRALKDPYNFQGQGQGGYRQVPTEKAGVKDWLLTGAFQYNTPDQLDSCCLNQGQCYQPSTACFRVAYLPLYLDSLGVDPHSPDLDVSWTLGAVLCRNEQCLAPSKPPCRWRKAGCLAPSVGDGRPEGRPGQQPGGVQHRQH
increase in CHO cell numbers (CHO wild-type cell line): 3 fold | amount of fluorescence (GFP) (CHO-GFP cell line): increased | number of cells displaying fluorescence signal (GFP) (CHO-GFP cell line): increased

B2: potato apyrase: potato apyrase (ATPase; Sigma), EC 3.6.1.5; SEQ ID NO: 3, predicted mature SEQ ID NO: 4 (protein, listed as Solanum tuberosum)
chain: KNVNAQIPLRRHLLSHESEHYAVIFDAGSTGSRVHVFRFDEKLGLLPIGNNIEYFMATEPGLSSYAEDPKAAANSLEPLLDGAEGVVPQELQSETPLELGATAGLRMLKGDAAEKILQAVRNLVKNQSTFHSKDQWVTILDGTQEGSYMWAAINYLLGNLGKDYKSTTATIDLGGGSVQMAYAISNEQFAKAPQNEDGEPYVQQKHLMSKDYNLYVHSYLNYGQLAGRAEIFKASRNESNPCALEGCDGYYSYGGVDYKVKAPKKGSSWKRCRRLTRHALKINAKCNIEECTFNGVWNGGGGDGQKNIHASSFFYDIGAQVGIVDTKFPSALAKPIQYLNAAKVACQTNVADIKSIFPKTQDRNIPYLCMDLIYEYTLLVDGFGLNPHKEITVIHDVQYKNYLVGAAWPLGCAIDLVSSTTNKIRVASS
growth (OD600) versus cells-only control (Bifidobacterium animalis [1]; 100 nM potato apyrase alone): grew better than the cells-only control | growth (OD600) in the presence of exogenously-added ATP (Bifidobacterium animalis [1]; 100 nM potato apyrase plus 5 mM ATP): negated the growth inhibitory effect of exogenously-added ATP | ATP accumulation in culture supernatant [4]: did not exhibit ATP accumulation | nanomolar ATP over time in culture supernatant [4]: decrease | increase in CHO cell numbers (CHO wild-type cell line): 3 fold | number of viable cells in culture (trypan blue exclusion) (CHO wild-type cell line; 10 nM potato apyrase, 60 hours in culture): improves the number of viable cells in culture | amount of fluorescence (GFP) (CHO-GFP cell line): increased | number of cells displaying fluorescence signal (GFP) (CHO-GFP cell line): increased
